For test [1], the target named is human recombinant BACE2 (Homo sapiens (Human), UniProt Q9Y5Z0). Kind of test: In vitro enzymatic BACE2 FRET assay. It is filed as biochemical. The note with it: read-out: IC50 IP (μM) BACE2 enzyme. Put shortly:
(§1)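 Ni-NTA-purified recombinant protease incubated with compound; reaction started with 50 nM FRET peptide substrate (fluorophore/quencher flanking the BACE cleavage site) and run 1 h. Stopped with Tris buffer raising pH to neutral; fluorescence read at ex 488/em 590 nm.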

For test [2], the target named is human recombinant BACE1 (Homo sapiens (Human), UniProt P56817). Kind of test: In vitro enzymatic BACE1 FRET assay. Type of test: biochemical. To be noted: read-out: IC50 IP (μM) BACE1 enzyme. The procedure, abridged: as §1
Chain of human recombinant BACE1 (P56817 46-501): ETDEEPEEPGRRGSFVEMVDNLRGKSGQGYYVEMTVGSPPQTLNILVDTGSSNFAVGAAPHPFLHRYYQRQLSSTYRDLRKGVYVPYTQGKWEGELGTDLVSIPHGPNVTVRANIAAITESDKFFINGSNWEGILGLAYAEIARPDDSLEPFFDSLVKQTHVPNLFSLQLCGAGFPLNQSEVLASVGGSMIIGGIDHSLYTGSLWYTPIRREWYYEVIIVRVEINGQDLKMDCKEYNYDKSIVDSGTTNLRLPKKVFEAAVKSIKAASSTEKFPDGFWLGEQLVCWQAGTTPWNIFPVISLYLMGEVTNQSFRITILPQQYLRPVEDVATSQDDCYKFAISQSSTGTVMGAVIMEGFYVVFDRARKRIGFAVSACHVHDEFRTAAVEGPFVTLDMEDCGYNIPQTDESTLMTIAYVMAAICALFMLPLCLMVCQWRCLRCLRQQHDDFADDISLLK
In test [3] the test system is Aβ40 in conditioned medium of cells stably expressing Amyloid Precursor Protein (APP). Kind of test: In vitro BACE-1 cell-based assay (Aβ40 sandwich ELISA). The note with it: read-out: IC50 IP (μM) BACE1 cell. Put shortly:
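APP-expressing cells treated 24 h at 37 °C with compound in 10-point dose response (top 100 μM or 10 μM, 0.1% DMSO final). Secreted Aβ40 in conditioned medium quantified by sandwich ELISA (pAb40 capture, biotinylated 6E10 detection, time-resolved europium fluorescence); IC50 from percent inhibition versus concentration.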

Test [4] addresses Recombinant Cat D (Homo sapiens (Human), UniProt P07339). The test is described as follows: In vitro enzymatic Cathepsin D (Cat D) FRET assay. To be noted: read-out: IC50 IP (μM) CatD. Type of test: biochemical. Put shortly: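 CHO-expressed enzyme; buffer 0.05 M citrate pH 3.5, 5 mM CHAPS, 10% DMSO final. Start with FRET substrate 20 nM, 1 h incubation, Tris stop (pH to neutral), fluorescence ex 500 nm/em 580 nm.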

Chain of Recombinant Cat D (P07339 65-412): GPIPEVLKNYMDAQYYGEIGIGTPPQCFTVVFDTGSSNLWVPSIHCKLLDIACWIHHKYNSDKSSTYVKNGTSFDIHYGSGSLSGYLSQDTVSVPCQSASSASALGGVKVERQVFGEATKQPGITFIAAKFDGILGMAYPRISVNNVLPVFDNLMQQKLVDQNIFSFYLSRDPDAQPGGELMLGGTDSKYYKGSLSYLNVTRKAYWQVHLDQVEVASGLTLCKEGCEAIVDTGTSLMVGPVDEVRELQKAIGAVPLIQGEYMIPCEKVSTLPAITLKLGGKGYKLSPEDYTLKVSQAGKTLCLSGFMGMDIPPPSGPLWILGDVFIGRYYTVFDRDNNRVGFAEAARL
Chain of human recombinant BACE2 (Q9Y5Z0 63-518): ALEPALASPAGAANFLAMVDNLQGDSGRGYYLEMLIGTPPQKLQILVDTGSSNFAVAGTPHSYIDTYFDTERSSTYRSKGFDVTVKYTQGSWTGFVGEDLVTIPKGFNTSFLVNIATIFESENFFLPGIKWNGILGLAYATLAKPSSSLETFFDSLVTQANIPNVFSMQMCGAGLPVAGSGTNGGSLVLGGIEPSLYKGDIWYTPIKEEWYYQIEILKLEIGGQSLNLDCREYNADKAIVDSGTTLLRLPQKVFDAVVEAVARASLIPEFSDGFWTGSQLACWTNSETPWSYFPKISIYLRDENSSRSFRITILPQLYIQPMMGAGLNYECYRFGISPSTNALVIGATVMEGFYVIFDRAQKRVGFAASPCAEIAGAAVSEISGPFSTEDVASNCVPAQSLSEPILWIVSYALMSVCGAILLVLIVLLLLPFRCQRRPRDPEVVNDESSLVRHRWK

Regarding `C[C@]1(c2cc(Nc3nccc4nc(OCc5ncco5)cnc34)ccc2F)N=C(N)S[C@@]2(C(F)F)C[C@@H]12` [Example 817, N-(3-((1S,5S,6S)-3-amino-1-(difluoromethyl)-5-methyl-2-thia-4-azabicyclo[4.1.0]hept-3-en-5-yl)-4-fluorophenyl)-2-(1,3-oxazol-2-ylmethoxy)pyrido[3,4-b]pyrazin-5-amine], the IC50 in test [1] came to 0.0319 µM; in test [2], 0.000706 µM; in test [3], 0.00171 µM; in test [4], 124 µM.

Regarding `C[C@]1(c2cc(NC(=O)c3ccc(Cl)cn3)ccc2F)N=C(N)S[C@@]2(C(F)F)C[C@@H]12` [Example 818, N-(3-((1S,5S,6S)-3-amino-1-(difluoromethyl)-5-methyl-2-thia-4-azabicyclo[4.1.0]hept-3-en-5-yl)-4-fluorophenyl)-5-chloro-2-pyridinecarboxamide], the IC50 in test [1] was below 0.00203 µM; in test [2], 0.000587 µM; in test [3], 0.00164 µM; in test [4], 152 µM.

As for `C#CCOc1cnc2c(Nc3ccc(F)c([C@@]4(C)N=C(N)S[C@@]5(C(F)F)C[C@@H]45)c3)ncnc2c1` [Example 819, N-(3-((1S,5S,6S)-3-amino-1-(difluoromethyl)-5-methyl-2-thia-4-azabicyclo[4.1.0]hept-3-en-5-yl)-4-fluorophenyl)-7-(2-propyn-1-yloxy)pyrido[3,2-d]pyrimidin-4-amine], the concentration for half-maximal inhibition (IC50) in test [1] came to 0.0412 µM; in test [2], 0.000821 µM; in test [3], 0.00175 µM; in test [4] it was 34.2 µM.

`C#CCOc1cnc(C(=O)Nc2ccc(F)c([C@@]3(C)N=C(N)S[C@@]4(C(F)F)C[C@@H]34)c2)cn1` [Example 820, N-(3-((1S,5S,6S)-3-amino-1-(difluoromethyl)-5-methyl-2-thia-4-azabicyclo[4.1.0]hept-3-en-5-yl)-4-fluorophenyl)-5-(2-propyn-1-yloxy)-2-pyrazinecarboxamide]: the IC50 worked out at 0.0162 µM in test [1], 0.000319 µM in test [2], 0.000495 µM in test [3] and 60.4 µM in test [4].

As for `C[C@]1(c2cc(NC(=O)c3ccc(Cl)cn3)ccc2F)N=C(N)S[C@@]2(CF)C[C@H]21` [Example 821, N-(3-((1S,5S,6S)-3-amino-1-(fluoromethyl)-5-methyl-2-thia-4-azabicyclo[4.1.0]hept-3-en-5-yl)-4-fluorophenyl)-5-chloro-2-pyridinecarboxamide], the half-maximal inhibitory concentration (IC50) was below 0.00203 µM in test [1], 0.00298 µM in test [2], 0.00428 µM in test [3] and 1170 µM in test [4].

On to `C#CCOc1cnc2c(Nc3ccc(F)c([C@@]4(C)N=C(N)S[C@@]5(CF)C[C@H]54)c3)ncnc2c1` [Example 824, N-(3-((1S,5S,6S)-3-amino-1-(fluoromethyl)-5-methyl-2-thia-4-azabicyclo[4.1.0]hept-3-en-5-yl)-4-fluorophenyl)-7-(2-propyn-1-yloxy)pyrido[3,2-d]pyrimidin-4-amine], for which the IC50 is 0.0842 µM in test [1], 0.00299 µM in test [2], 0.00128 µM in test [3] and 1840 µM in test [4].

In the case of `C[C@]1(c2cc(Nc3nccc4nc(OCc5ncco5)cnc34)ccc2F)N=C(N)S[C@@]2(CF)C[C@H]21` [Example 825, N-(3-((1S,5S,6S)-3-amino-1-(fluoromethyl)-5-methyl-2-thia-4-azabicyclo[4.1.0]hept-3-en-5-yl)-4-fluorophenyl)-2-(1,3-oxazol-2-ylmethoxy)pyrido[3,4-b]pyrazin-5-amine], the IC50 in test [1] is 0.0542 µM; in test [2] it was 0.00357 µM; in test [3], 0.00111 µM; in test [4], 526 µM.

In the case of `C[C@]1(c2cc(NC(=O)c3cnc(OCC(F)(F)F)cn3)ccc2F)N=C(N)S[C@@]2(CF)C[C@H]21` [Example 826, N-(3-((1S,5S,6S)-3-amino-1-(fluoromethyl)-5-methyl-2-thia-4-azabicyclo[4.1.0]hept-3-en-5-yl)-4-fluorophenyl)-5-(2,2,2-trifluoroethoxy)-2-pyrazinecarboxamide], the half-maximal inhibitory concentration (IC50) turned out to be 0.0778 µM in test [1], 0.00174 µM in test [2], 0.00331 µM in test [3] and 395 µM in test [4].

In the case of `C#CCOc1cnc(C(=O)Nc2ccc(F)c([C@@]3(C)N=C(N)S[C@@]4(CF)C[C@H]43)c2)c(C)n1` [Example 829, N-(3-((1S,5S,6S)-3-amino-1-(fluoromethyl)-5-methyl-2-thia-4-azabicyclo[4.1.0]hept-3-en-5-yl)-4-fluorophenyl)-3-methyl-5-(2-propyn-1-yloxy)-2-pyrazinecarboxamide], the half-inhibitory concentration (IC50) in test [1] was 0.00801 µM; in test [2], 0.000776 µM; in test [3] it was 0.0019 µM; in test [4], 354 µM.

For the compound `C#CCOc1cnc(C(=O)Nc2ccc(F)c([C@@]3(C)N=C(N)S[C@@]4(C(F)F)C[C@@H]34)c2)c(C)n1` [Example 830, N-(3-((1S,5S,6S)-3-amino-1-(difluoromethyl)-5-methyl-2-thia-4-azabicyclo[4.1.0]hept-3-en-5-yl)-4-fluorophenyl)-3-methyl-5-(2-propyn-1-yloxy)-2-pyrazinecarboxamide], the half-inhibitory concentration (IC50) in test [1] came out at 0.0101 µM; in test [2], 0.000566 µM; in test [3] it was 0.00221 µM; in test [4], 121 µM.

On to `C#CCOc1cnc(C(=O)Nc2ccc(F)c([C@@]3(C)N=C(N)S[C@@]4(COC)C[C@H]43)c2)c(C)n1` [Example 832, N-(3-((1S,5S,6S)-3-amino-1-(methoxymethyl)-5-methyl-2-thia-4-azabicyclo[4.1.0]hept-3-en-5-yl)-4-fluorophenyl)-3-methyl-5-(2-propyn-1-yloxy)-2-pyrazinecarboxamide], for which the IC50 in test [1] came to 0.013 µM; in test [2] it was 0.00299 µM; in test [3], 0.00213 µM; in test [4], 778 µM.

For the compound `COC[C@]12C[C@H]1[C@@](C)(c1cc(NC(=O)c3ccc(Cl)cn3)ccc1F)N=C(N)S2` [Example 833, N-(3-((1S,5S,6S)-3-amino-1-(methoxymethyl)-5-methyl-2-thia-4-azabicyclo[4.1.0]hept-3-en-5-yl)-4-fluorophenyl)-5-chloro-2-pyridinecarboxamide], the IC50 in test [1] was 0.0061 µM; in test [2] it was 0.0041 µM; in test [3], 0.0137 µM; in test [4], above 400 µM.

As to `COC[C@]12C[C@H]1[C@@](C)(c1cc(NC(=O)c3ncc(OCc4ncco4)nc3C)ccc1F)N=C(N)S2` [Example 835, N-(3-((1S,5S,6S)-3-amino-1-(methoxymethyl)-5-methyl-2-thia-4-azabicyclo[4.1.0]hept-3-en-5-yl)-4-fluorophenyl)-3-methyl-5-(1,3-oxazol-2-ylmethoxy)-2-pyrazinecarboxamide], the IC50 in test [1] was 0.0249 µM; in test [2], 0.00305 µM; in test [3] it was 0.00392 µM; in test [4], above 400 µM.

As for `Cc1nc(OCc2ncco2)cnc1C(=O)Nc1ccc(F)c([C@@]2(C)N=C(N)S[C@@]3(C(F)F)C[C@@H]23)c1` [Example 836, N-(3-((1S,5S,6S)-3-amino-1-(difluoromethyl)-5-methyl-2-thia-4-azabicyclo[4.1.0]hept-3-en-5-yl)-4-fluorophenyl)-3-methyl-5-(1,3-oxazol-2-ylmethoxy)-2-pyrazinecarboxamide], the IC50 is 0.0362 µM in test [1], 0.00209 µM in test [2], 0.00389 µM in test [3] and above 400 µM in test [4].
